Assay results as given in patent US20230193262A1, “Nucleic acid molecules capable of modulating target gene expression and uses thereof” (KOREA ADVANCED INSTITUTE OF SCIENCE AND TECHNOLOGY, priority 2021, published 2023).
{Cy5.5} = Cy5.5 fluorophore label

Key:
Type in all cases: cell-based
[1] = system: breast cancer cell line MDA-MB-453; test: Cell viability / apoptosis in MDA-MB-453; details: for apoptosis: MDA-MB-453; for cell viability: MDA-MB-453 (does not express miR-222)
Protocol: (§1) The miRNA triggers were assayed for cytotoxicity and apoptosis induction, using the CCK-8 (Cell Counting Kit-8) (Dojindo, Kumamoto, Japan) according to the manufacturer's instruction. Cells were incubated in 96-well plates (5×10^3 cells/well) at 37° C. for 24 hours under a 5% CO2 atmosphere, followed by transfection. Three days after transfection, the medium was removed. A 10-fold dilution of CCK-8 solution in DMEM was added to the cells which were then incubated at 37° C. for 2 hours. After incubation, absorbance was read at 450 nm on Tecan Infinite M200 pro microplate reader (Mnnedorf, Switzerland).
(§2) The selected linear miRNA triggers (bcl-xL(1)_22_2222 and bcl-xL(2)_222_222) were transfected into the breast cancer cell line MDA-MB-453 to which miR-222 is not endogenous. Cell viability, and the mRNA and protein expression levels of the target gene (bcl-xL) were measured and the results are depicted in FIGS. 33a to 33c.
The hairpin miRNA triggers prepared above were transfected into MDA-MB-231 and MDA-MB-453 cells which were then measured for cell viability. The results are depicted in FIG. 37.
The MCL-1-222-222 miRNA trigger, which utilizes miR-222 to regulate MCL-1 gene, and the BCL-xL-let7f-let7f miRNA trigger, which utilizes miR-let7f to regulate BCL-xL gene, were administered to MDA-MB-231 and MDA-MB-453.
Next, apoptosis was examined when the two types of miRNA triggers were co-administered to cells. The total concentration of the two triggers was 120 nM, which was the same as for individual miRNAs. The results are depicted in FIG. 47.

[2] = system: breast cancer cell line MDA-MB-231; test: Cell viability / apoptosis in MDA-MB-231
Protocol: as §1
The seven linear miRNA triggers prepared above and the positive control siRNA(siBcl-xL) capable of binding to bcL-xL were transfected into the breast cancer cell line MDA-MB-231 in which miR-222 is overexpressed. Cell viability was measured and is depicted in FIG. 32a.
Linear miRNA triggers that could bind to miR-222 and target bcl-xL and mcl-1, respectively, were prepared and transfected alone or in combination into the breast cancer cell line MDA-MB-231. Cell viability was measured and the measurements are depicted in FIG. 34. siRNAs against Mcl-1 and Bcl-xL were used as controls. […]
The hairpin miRNA triggers prepared above were transfected into MDA-MB-231 and MDA-MB-453 cells which were then measured for cell viability. […]

Hela-141 cells = test: Cell viability / apoptosis (CCK-8) in Hela-141 cells; details: Hela-141 cells (express miR-141)
Protocol: as §1
(§3) The linear miRNA triggers or siRNAs (siLuc and siMcl-1) prepared above were transfected into Hela, Hela-141, and Hela-200c cells which were then measured for cell viability. The results are depicted in FIG. 15.
The hairpin miRNA triggers prepared above were transfected into Hela and Hela-141 cells which were then assayed for apoptosis. As a control, the siRNA (siMcl-1; Table 14) which can repress the expression of mcl-1 was transfected to Hela and Hela-141 cells and measured for apoptotic activity.

Mcl-1 = test: Western blot of Mcl-1 protein in Hela-141 cells; details: 5 to 120 nM, compared to the control Luc-141-141
Protocol: (§4) miRNA triggers were transfected into cells in the same manner as in Reference Example 4. After 72 hours, the cells were collected using a cell scraper and lysed with a RIPA buffer (NaCl 150 mM, EDTA 5 mM, Tris 50 mM, NP-40 1.0%, sodium deoxycholate 0.5%, SDS 0.1%). The cell lysate was sonicated 15 times, each for 20 sec, with a halt for 30 sec every sonication. Following centrifugation at 5,000 g for 5 min, the supernatant was taken and used to extract proteins therefrom. A total of 30-40 μg of protein sample was separated in 10-15% SDS-PAGE gel and transferred onto a PVDF membrane through a semi-dry blotting system. The membrane was blocked for 1 hour in 5% skimmed milk and incubated for 2 hours with a 1,000-fold dilution of a primary antibody in, 1% skimmed milk. […] The membrane incubated with the secondary antibody was washed three times with 1×PBST for 10 min each wash, and then reacted with Clarity Western ECL Substrate (#1705061, Bio-Rad), after which images were obtained and analyzed using ChemiDoc (Bio-rad, Hercules, USA).
A linear miRNA trigger (Mcl-1-141-141; Table 15) that could bind to miR-141 and target mcl-1 was prepared while a linear miRNA trigger (Luc-141-141; Table 9) that could bind to miR-141 and target Luc (luciferase) was used as a control. […] Then, proteins were extracted from the Hela-141 cells and quantitatively analyzed for Mcl-1 protein level by western blotting. […]

Hela-200c cells = test: Cell viability / apoptosis (CCK-8) in Hela-200c cells
Protocol: as §1, §3

Bcl-xL = test: Western blot of Bcl-xL protein; details: MDA-MB-453
Protocol: as §4
The cells transfected with the selected miRNA triggers were measured for protein expression levels of the target Bcl-xL and the apoptotic marker cleaved PARP through western blotting, and the results are depicted in FIG. 32b. […]

BCL-xL mRNA = test: bcl-xL mRNA expression / gene regulation efficiency; details: MDA-MB-453
Protocol: In the same manner as in Reference Example 4, miRNA triggers were transfected into cells. After 48 hours, total RNA was extracted using TRIzol (Thermo Fisher Scientific) according to the manufacturer's instruction. The purified RNA was treated with DNase I and then reverse transcribed in the presence of RevertAid reverse transcriptase (Thermo Fisher Scientific), with random hexamers (Thermo Fisher Scientific) serving as primers. For use in amplification of target genes, primers for target genes were added, together with the cDNA, to the SYBR Green PCR master mix (Thermo Fisher Scientific). RT-qPCR was conducted on a StepOnePlus real-time PCR system. Cq values obtained from this analysis was quantitatively analyzed based on the 2^−ΔΔC(t) method.
as §2
After treatment with miRNA triggers, mRNA expression levels of the target gene BCL-xL were measured. […]

[3] = system: MOLM-14, MV4-11 and Hela cells; test: Fluorescence (IVIS 100) of cells transfected with Cy5.5-labeled trigger; details: Lipofectamine
Protocol: With the aid of Lipofectamine, the linear miRNA trigger (5′-Cy5.5-miR-155-miR-155-PKR-3′) was transfected into the FLT3-ITD mutant AML cell lines MOLM-14 and MV4-11 and the solid cancer cell line Hela. […] Subsequent animal tests were performed with the trigger.

**Q.** Which results are given for “MCL-1-let7f-let7f: linear miRNA trigger designed to knock down MCL-1 by using miR-let7f; SEQ ID NO 113 (AACUAUACAAUGAACUACCUCAAACUAUACAAUGAACUACCUCACCGAACUACGUAGC; all 2'-O-methyl, backbone not given here)”?
**A.** apoptosis ([1]; Example 13): none of the two cell lines were induced to undergo apoptosis; apoptosis ([2]; Examples 12-13): none of the two cell lines were induced to undergo apoptosis

**Q.** With “Mcl-1-141-141: linear miRNA trigger binding miR-141 and targeting mcl-1; SEQ ID NO 65 (Table 25: 110) (CCAUCUUUACCUCACAGUGUUACCAUCUUUACCUCACAGUGUUACCGAACUACGUAGC; all 2'-O-methyl, backbone not given here)” as the molecule, how does the apoptosis induced (Hela-141 cells) read?
**A.** The apoptosis induced was “up to 40%”.

**Q.** And the Mcl-1 protein level (Mcl-1)?
**A.** The Mcl-1 protein level was “significantly decreased in Mcl-1 protein level”.

**Q.** What about the “apoptosis / cell viability” value (Hela-200c cells) of the same molecule?
**A.** The value was “no significant influence on cell viability”.

**Q.** How did the apoptosis ([1]; 120 nM (total)) turn out when “MCL-1-222-222: linear miRNA trigger which utilizes miR-222 to regulate MCL-1 gene; SEQ ID NO 109 (ACCCAGUAGCCAGAUGUAGCUACCCAGUAGCCAGAUGUAGCUCCGAACUACGUAGC; all 2'-O-methyl, backbone not given here)” was run?
**A.** The apoptosis was “did not induce apoptosis”.

**Q.** And the apoptosis ([2]; 120 nM (total))?
**A.** Its apoptosis is “no apoptosis was observed”.

**Q.** For “bcl-xL(2)_222_222: linear miRNA trigger binding miR-222 and knocking down bcl-xL; SEQ ID NO 107 (ACCCAGUAGCCAGAUGUAGCUACCCAGUAGCCAGAUGUAGCUUACCUGCCAGCCUCCUU; all 2'-O-methyl, backbone not given here)”, which cell viability [1] is on record?
**A.** The cell viability was “did not significantly change”.

**Q.** And the “protein expression level of target bcl-xL” value (Bcl-xL)?
**A.** The value was “did not significantly change”.

**Q.** What about the “mRNA expression level of target bcl-xL” value (BCL-xL mRNA) of the same molecule?
**A.** Its value is “did not significantly change”.

B1: 5′-Cy5.5-miR-155-miR-155-PKR-3′: linear miRNA trigger binding miR-155, targeting PKR, labeled with Cy5.5 fluorophore; SEQ ID NO 69 (conjugate)
chain: UUAUGUUUCAGGUUCAGGGGGAUUAUGUUUCCAGGUUCAGGGGGAUAUGUGAGGCAGAGAACGA
modifications: all 2'-O-methyl, 5' {Cy5.5}, backbone not given here
**Q.** B1 was tested. Which “Cy5.5 fluorescence of transfected cells” value [3] did it give?
**A.** Its value is “Fluorescence was detected”.

B2: bcl-xL(1)_222_222: linear miRNA trigger binding miR-222 and knocking down bcl-xL; SEQ ID NO 106 (nucleic acid)
chain: ACCCAGUAGCCAGAUGUAGCUACCCAGUAGCCAGAUGUAGCUUCUCCUUCCUGCCCUUCCU
modifications: all 2'-O-methyl, backbone not given here
**Q.** With B2 as the molecule, how does the cell viability [1] read?
**A.** The cell viability was “did not significantly change”.

**Q.** And the “protein expression level of target bcl-xL” value (Bcl-xL)?
**A.** The value was “did not significantly change”.

**Q.** And the “mRNA expression level of target bcl-xL” value (BCL-xL mRNA)?
**A.** The value was “did not significantly change”.
